Reference: ChEMBL document CHEMBL5338738, “Discovery of Novel Sesquiterpene Lactone Derivatives as Potent PKM2 Activators for the Treatment of Ulcerative Colitis” (J Med Chem, 2023)
Activity calls are given as the source filed them. No cut-off for these calls is given here.

Assays:
[1] = Toxicity in C57BL/6 mouse assessed as histological change in lung at 6.25 to 25 mg/kg, po for 10 days consecutively by H and E staining based microscopy; type: organism-based; settings: in vivo, 240 h, dose 6.25-25 mg/kg, time 10 day
CD4+ve Th [2] = assay: Cytotoxicity against C57BL/6 mouse mesenteric lymph node CD4+ve Th cells assessed as reduction in cell viability at 0.3 to 3 uM incubated for 96 hrs by MTT assay; type: toxicity, cell-based; settings: dose 0.3-3 µM
Mus musculus [3] = assay: Anti-colitis activity against DSS-induced ulcerative colitis C57BL/6 mouse model assessed as downregulation of IL17a mRNA expression level in colon at 12.5 to 25 mg/kg, po for 10 days consecutively by qPCR assay; type: functional, organism-based; settings: dose 12.5-25 mg/kg, time 10.0 day
CD4+ve Th [4] = assay: (§1) Inhibition of Treg cells differentiation in anti-CD3/CD28 stimulated C57BL/6 mouse mesenteric lymph node CD4+ve Th cells assessed as change in Foxp3 mRNA expression level cells at 0.1 to 3 uM incubated for 96 hrs in presence of recombinant human TGF-beta by qPCR analysis; type: functional, cell-based; settings: dose 0.1-3 µM
Mus musculus [5] = assay: Anti-colitis activity against DSS-induced ulcerative colitis C57BL/6 mouse model assessed as downregulation of RORC mRNA expression level in spleen at 12.5 to 25 mg/kg, po for 10 days consecutively by qPCR assay; type: functional, organism-based; settings: dose 12.5-25 mg/kg, time 10.0 day
[6] = MRT(t) in Sprague-Dawley rat at 8 mg/kg,iv and measured upto 24 hrs by LC-MS/MS analysis; type: ADME, organism-based; settings: in vivo
Mus musculus [7] = assay: Anti-colitis activity against DSS-induced ulcerative colitis C57BL/6 mouse model assessed as increase in colon length at 12.5 to 25 mg/kg, po for 10 days consecutively; type: functional, organism-based; settings: dose 12.5-25 mg/kg, time 10.0 day
CD4+ve Th [8] = assay: as §1, with “Th17” for “Treg”, “downregulation of IL23r” for “change in Foxp3”, “level” for “level cells”, “TGF-beta, recombinant mouse IL-6 and recombinant mouse IL-23” for “TGF-beta”; type: functional, cell-based; settings: dose 0.1-3 µM
[9] = Volume of distribution in Sprague-Dawley rat at 8 mg/kg,iv and measured upto 24 hrs by LC-MS/MS analysis; type: ADME, organism-based; settings: in vivo
[10] = AUCt in Sprague-Dawley rat at 75 mg/kg,po and measured upto 24 hrs by LC-MS/MS analysis; type: ADME, organism-based; set-up: time < 24 hrs, dose 75 mg/kg, route po; settings: in vivo
Mus musculus [11] = assay: Anti-colitis activity against DSS-induced ulcerative colitis C57BL/6 mouse model assessed as downregulation of IL10 mRNA expression level in spleen at 6.25 to 25 mg/kg, po for 10 days consecutively by qPCR assay; type: functional, organism-based; settings: dose 6.25-25 mg/kg, time 10.0 day
Mus musculus [12] = assay: Anti-colitis activity against DSS-induced ulcerative colitis C57BL/6 mouse model assessed as decrease in IL-1beta mRNA expression level in colon at 12.5 to 25 mg/kg, po for 10 days consecutively by qPCR analysis; type: functional, organism-based; settings: dose 12.5-25 mg/kg, time 10.0 day
[13] = Tmax in Sprague-Dawley rat at 8 mg/kg,iv and measured upto 24 hrs by LC-MS/MS analysis; type: ADME, organism-based; settings: in vivo
Mus musculus [14] = assay: Anti-colitis activity against DSS-induced ulcerative colitis C57BL/6 mouse model assessed as downregulation of IL17a mRNA expression level in spleen at 12.5 to 25 mg/kg, po for 10 days consecutively by qPCR assay; type: functional, organism-based; settings: dose 12.5-25 mg/kg, time 10.0 day
[15] = Inhibition of Th17 cells differentiation in anti-CD3/CD28 stimulated C57BL/6 mouse mesenteric lymph node CD4+ve Th cells assessed as decrease in proportion of IL17A-positive Th17 cells at 3 uM incubated for 96 hrs in presence of recombinant human TGF-beta, recombinant mouse IL-6 and recombinant mouse IL-23 by flow cytometry (Rvb= 16.7%); type: functional; settings: C57BL/6, CD4+ve Th
T-cell = assay: Immunomodulatory activity in C57BL/6 mouse mesenteric lymph node T cells assessed as inhibition of concanavalin A stimulated T-cell proliferation incubated for 68 hrs by CCK-8 assay; type: functional, cell-based; settings: C57BL/6, T-cell
Mus musculus [16] = assay: Anti-colitis activity against TNBS-induced ulcerative colitis BALB/c mouse model assessed as decrease in mucosal damage in colon at 12.5 to 25 mg/kg, po for consecutive 7 days by H and E staining based microscopy; type: functional, organism-based; settings: dose 12.5-25 mg/kg, time 7.0 day
CD4+ve Th [17] = assay: Cytotoxicity against C57BL/6 mouse mesenteric lymph node CD4+ve Th cells assessed as reduction in cell proliferation at 0.3 to 3 uM incubated for 96 hrs by CCK-8 assay; type: toxicity, cell-based; settings: dose 0.3-3 µM
[18] = Cmax in Sprague-Dawley rat at 8 mg/kg,iv and measured upto 24 hrs by LC-MS/MS analysis; type: ADME, organism-based; set-up: time < 24 hrs, dose 8 mg/kg, route iv; settings: in vivo
CD4+ve Th [19] = assay: Inhibition of aerobic glycolysis in anti-CD3/CD28 stimulated C57BL/6 mouse mesenteric lymph node CD4+ve Th cells assessed as reduction in glucose utilization by measuring glucose level at 0.3 to 3 uM incubated for 96 hrs in presence of recombinant human TGF-beta, recombinant mouse IL-6 and recombinant mouse IL-23 by colorimetric analysis; type: functional, cell-based; settings: dose 0.3-3 µM
Mus musculus [20] = assay: Anti-colitis activity against TNBS-induced ulcerative colitis BALB/c mouse model assessed as decrease in inflammatory injury by measuring MPO level at 12.5 to 25 mg/kg, po for consecutive 7 days; type: functional, organism-based; settings: dose 12.5-25 mg/kg, time 7.0 day
Mus musculus [21] = assay: Anti-colitis activity against DSS-induced ulcerative colitis C57BL/6 mouse model assessed as decrease in IL-6 mRNA expression level in colon at 12.5 to 25 mg/kg, po for 10 days consecutively by qPCR analysis; type: functional, organism-based; settings: dose 12.5-25 mg/kg, time 10.0 day
CD4+ve Th [22] = assay: Inhibition of Th17 cells differentiation in anti-CD3/CD28 stimulated C57BL/6 mouse mesenteric lymph node CD4+ve Th cells assessed as increase in PKM2 tetramer formation at 0.1 to 3 uM incubated for 96 hrs in presence of recombinant human TGF-beta, recombinant mouse IL-6 and recombinant mouse IL-23 by Western blot analysis; type: functional, cell-based; settings: dose 0.1-3 µM
[23] = Tmax in Sprague-Dawley rat at 75 mg/kg,po and measured upto 24 hrs by LC-MS/MS analysis; type: ADME, organism-based; settings: in vivo
[24] = Microsomal stability in rat liver microsomes assessed as half life; type: ADME, Microsome
Mus musculus [25] = assay: Anti-colitis activity against DSS-induced ulcerative colitis C57BL/6 mouse model assessed as downregulation of RORC mRNA expression level in colon at 12.5 to 25 mg/kg, po for 10 days consecutively by qPCR assay; type: functional, organism-based; settings: dose 12.5-25 mg/kg, time 10.0 day
Mus musculus [26] = assay: Anti-colitis activity against DSS-induced ulcerative colitis C57BL/6 mouse model assessed as decrease in MPO level in colon at 12.5 to 25 mg/kg, po for 10 days consecutively; type: functional, organism-based; settings: dose 12.5-25 mg/kg, time 10.0 day

C=C1C(=O)O[C@H]2[C@H]1CC[C@@]1(C)[C@@H](CC[C@@]3(C)O[C@@H]23)C1(F)F
Activity [1]: Non-Toxic | Activity (CD4+ve Th [2]): Non-Toxic | Activity (Mus musculus [3]): Active | inhibition (CD4+ve Th [4]): inactive | Activity (Mus musculus [5]): Active | MRT last at 24 h [6]: 5 h | Activity (Mus musculus [7]): Active | inhibition (CD4+ve Th [8]): Active | Vd [9]: 17.6 L/kg | AUC(0-t) at 24 h [10]: 322 ng·h/mL | Activity (Mus musculus [11]): inactive | Activity (Mus musculus [12]): Active | Tmax [13]: 4.98 min | Activity (Mus musculus [14]): Active | IL17A+ cells at 3 µM [15]: 4.26% | IC50 (T-cell): 590 nM | Activity (Mus musculus [16]): Active | Activity (CD4+ve Th [17]): Non-Toxic | Cmax [18]: 190 ng/mL | inhibition (CD4+ve Th [19]): Active | Activity (Mus musculus [20]): Active | Activity (Mus musculus [21]): Active | inhibition (CD4+ve Th [22]): Active | Tmax [23]: 6 h | half-life [24]: 0.21 h | Activity (Mus musculus [25]): Active | Activity (Mus musculus [26]): Active
